From publication PMC8950700 (Pharmaceuticals, 2022)
pIC50: −log10 of the molar value. Where two headings read alike, the source gives them in different places.

What was measured:
[1] = tested on: H5N1N295S virus; assay type: cell-based, influenza A virus; conditions: read-out: IC50 (50% Inhibitory Concentration) H5N1N295S
[2] = tested on: A/California/04/2009 (H1N1); experiment: microbe, parasite or virus in culture; assay type: cell-based; conditions: Influenza A virus
[3] = in vitro; conditions: dog
[4] = tested on: H5N1V116A virus; assay type: cell-based, influenza A virus; conditions: read-out: IC50 (50% Inhibitory Concentration) H5N1V116A
[5] = tested on: A/chicken/Egypt/B13825A/2017 (H5N1wild); experiment: microbe, parasite or virus in culture; assay type: cell-based; conditions: Influenza A virus
[6] = tested on: H1N1 virus; assay type: cell-based
[7] = tested on: H5N1V116A virus; assay type: cell-based, influenza A virus
[8] = tested on: H5N1V116A virus; assay type: cell-based, influenza A virus; remark: listed apart in the source
[9] = tested on: H5N1N295S virus; assay type: cell-based, influenza A virus
[10] = tested on: H1N1 virus; conditions: mouse, in vivo
[11] = tested on: H5N1wild virus; conditions: mouse, in vivo
[12] = tested on: H5N1N295S virus; assay type: cell-based, influenza A virus; remark: listed apart in the source
[13] = tested on: H5N1wild virus; experiment: microbe, parasite or virus in culture; assay type: cell-based; conditions: Influenza A virus, read-out: viral inhibition in the count of plaques, H5N1wild
[14] = tested on: H5N1wild virus; assay type: cell-based
[15] = mouse, in vivo
[16] = H1N1, read-out: IC50 (50% Inhibitory Concentration) H1N1
[17] = H1N1, read-out: IC50 H1N1 (Figure 5)
[18] = read-out: IC50 (50% Inhibitory Concentration) H5N1wild
[19] = read-out: IC50 H5N1wild (Figure 5)

SMILES	pIC50 [1]	pIC50 [2, 16]	pIC50 [2, 17]	CC50 at 72 h [3] [µM]	pIC50 [4]	pIC50 [5, 18]	inhibition in the viral HA titer, H1N1 [6]	inhibition in the viral HA titer, H5N1V116A [8]	inhibition in the viral HA titer, H5N1N295S [9]	viral titer in lung tissue (TCID50), H1N1 [10]	survival after infection with H5N1wild [11] [%]	inhibition in the viral HA titer, H5N1wild [14]	survival after infection with H1N1 [10]	external observations of mice [15]	ALT ([15]; 20 mg/kg)	AST ([15]; 20 mg/kg)	Creatinine ([15]; 20 mg/kg)	Urea ([15]; 20 mg/kg)	ALT ([15]; 40 mg/kg)	AST ([15]; 40 mg/kg)	further results
CC(=O)OC[C@H]1O[C@@H](OCc2cn(Cc3nc4ccccc4o3)nn2)[C@H](OC(C)=O)[C@@H](OC(C)=O)[C@@H]1OC(C)=O [Compound 7b, (2R,3R,4S,5R,6R)-2-(Acetoxymethyl)-6-((1-(benzo[d]oxazol-2-ylmethyl)-1H-1,2,3-triazol-4-yl)methoxy)tetrahydro-2H-pyran-3,4,5-triyl Triacetate]	4.81	5.77	5.77	1050	4.65	4.43															
CCOC(=O)C1=C[C@H](N)C(NC(C)=O)[C@H](OC(CC)CC)C1 (stereo partly drawn) [oseltamivir, reference compound]	4.59	5.78		581	3.51	5.00	not more than 80%	not more than 80%	≤ 20%	did not affect	60	≤ 20%									viral inhibition in the count of plaques, H5N1V116A [7]: ~40%; mortality after infection with H1N1 [10]: 60%; viral titer in lung tissue (TCID50), H5N1wild [11]: reduced the propagation; viral inhibition in the count of plaques, H5N1N295S [12]: ~8.5%; pIC50 [5, 19]: 5.00; inhibition at 5 µM [13]: ~90%
CC(=O)O[C@@H]1[C@@H](OC(C)=O)[C@H](OCc2cn(Cc3nc4ccccc4o3)nn2)OC[C@H]1OC(C)=O [Compound 9b, (2R,3R,4S,5R)-2-((1-(Benzo[d]oxazol-2-ylmethyl)-1H-1,2,3-triazol-4-yl)methoxy)tetrahydro-2H-pyran-3,4,5-triyl Triacetate]	4.91	5.77		478	4.25	5.78															
CC(=O)O[C@@H]1[C@@H](OC(C)=O)[C@H](OCc2cn(Cc3nc4ccccc4s3)nn2)OC[C@H]1OC(C)=O [Compound 9c, (2R,3R,4S,5R)-2-((1-(Benzo[d]thiazol-2-ylmethyl)-1H-1,2,3-triazol-4-yl)methoxy)tetrahydro-2H-pyran-3,4,5-triyl Triacetate]	4.26	5.79	5.78	302	5.78	5.65	more than 80%	more than 80%	not more than 50%	reduced the propagation	80	more than 80%	full protection from mortality	normal in external observations	7.60 ± 1.56	11.93 ± 3.765	0.14 ± 0.05	7.90 ± 3.13	7.80 ± 2.07	9.689 ± 2.922	Creatinine ([15]; 40 mg/kg): 0.14 ± 0.05; Urea ([15]; 40 mg/kg): 3.64 ± 1.49; ALT ([15]; 80 mg/kg): 5.54 ± 1.22; AST ([15]; 80 mg/kg): 12.33 ± 3.169; Creatinine ([15]; 80 mg/kg): 0.13 ± 0.04; Urea ([15]; 80 mg/kg): 4.88 ± 2.13; viral titer in lung tissue (TCID50), H5N1wild [11]: reduced the propagation; virus shedding in the nasal wash (EID50), H5N1wild [11]: reduced the viral shedding
CC(=O)OC[C@H]1O[C@@H](OCc2cn(Cc3nc4ccccc4[nH]3)nn2)[C@H](OC(C)=O)[C@@H](OC(C)=O)[C@H]1OC(C)=O [Compound 8a, (2R,3R,4S,5S,6R)-2-((1-((1H-Benzo[d]imidazol-2-yl)methyl)-1H-1,2,3-triazol-4-yl)methoxy)-6-(acetoxymethyl)tetrahydro-2H-pyran-3,4,5-triyl Triacetate]	4.64	5.79		503	3.03	4.58															
CC(=O)O[C@@H]1[C@@H](OC(C)=O)[C@H](OCc2cn(Cc3nc4ccccc4[nH]3)nn2)OC[C@H]1OC(C)=O [Compound 9a, (2R,3R,4S,5R,)-2-((1-((1H-Benzo[d]imidazol-2-yl)methyl)-1H-1,2,3-triazol-4-yl)methoxy)tetrahydro-2H-pyran-3,4,5-triyl Triacetate]	5.25	5.78	5.78	795	5.25	5.24	more than 80%	more than 80%	not more than 50%	significantly reduced the propagation		not more than 50%	60%	normal in external observations	9.64 ± 3.64	20 ± 6.957	0.13 ± 0.04	7.32 ± 2.09	10.64 ± 1.38	13.77 ± 1.298	virus shedding in the nasal wash (EID50), H1N1 [10]: significantly reduced the viral titer; Creatinine ([15]; 40 mg/kg): 0.13 ± 0.04; Urea ([15]; 40 mg/kg): 7.32 ± 0.48; ALT ([15]; 80 mg/kg): 8.67 ± 2.16; AST ([15]; 80 mg/kg): 15.33 ± 0.9686; Creatinine ([15]; 80 mg/kg): 0.17 ± 0.04; Urea ([15]; 80 mg/kg): 4.64 ± 1.12; virus shedding in the nasal wash (EID50), H5N1wild [11]: reduced the viral shedding
CC(=O)OC[C@H]1O[C@@H](OCc2cn(Cc3nc4ccccc4s3)nn2)[C@H](OC(C)=O)[C@@H](OC(C)=O)[C@@H]1OC(C)=O [Compound 7c, (2R,3R,4S,5R,6R)-2-(Acetoxymethyl)-6-((1-(benzo[d]thiazol-2-ylmethyl)-1H-1,2,3-triazol-4-yl)methoxy)tetrahydro-2H-pyran-3,4,5-triyl Triacetate]	4.43	5.78	5.78	764	4.95	5.79															
CC(=O)OC[C@H]1O[C@@H](OCc2cn(Cc3nc4ccccc4s3)nn2)[C@H](OC(C)=O)[C@@H](OC(C)=O)[C@H]1OC(C)=O [Compound 8c, (2R,3S,4S,5R,6R)-2-(Acetoxymethyl)-6-((1-(benzo[d]thiazol-2-ylmethyl)-1H-1,2,3-triazol-4-yl)methoxy)tetrahydro-2H-pyran-3,4,5-triyl Triacetate]	4.19	5.79	5.78	312	4.16	5.78															
CC(=O)OC[C@H]1O[C@@H](OCc2cn(Cc3nc4ccccc4o3)nn2)[C@H](OC(C)=O)[C@@H](OC(C)=O)[C@H]1OC(C)=O [Compound 8b, (2R,3S,4S,5R,6R)-2-(Acetoxymethyl)-6-((1-(benzo[d]oxazol-2-ylmethyl)-1H-1,2,3-triazol-4-yl)methoxy)tetrahydro-2H-pyran-3,4,5-triyl Triacetate]	4.71	5.77	5.77	788	4.79	5.06	more than 80%	more than 80%	not more than 60%		60	more than 80%	60%	normal in external observations	10.66 ± 4.32	15 ± 3.41	0.17 ± 0.04	9.00 ± 3.81	8.20 ± 2.62	15.77 ± 0.9944	Creatinine ([15]; 40 mg/kg): 0.13 ± 0.04; Urea ([15]; 40 mg/kg): 6.66 ± 1.54; ALT ([15]; 80 mg/kg): 6.72 ± 1.47; AST ([15]; 80 mg/kg): 16 ± 5.099; Creatinine ([15]; 80 mg/kg): 0.10 ± 0.02; Urea ([15]; 80 mg/kg): 7.32 ± 3.90
CC(=O)OC[C@H]1O[C@@H](OCc2cn(Cc3nc4ccccc4[nH]3)nn2)[C@H](OC(C)=O)[C@@H](OC(C)=O)[C@@H]1OC(C)=O [Compound 7a, (2R,3R,4S,5R,6R)-2-((1-((1H-Benzo[d]imidazol-2-yl)methyl)-1H-1,2,3-triazol-4-yl)methoxy)-6-(acetoxymethyl)tetrahydro-2H-pyran-3,4,5-triyl Triacetate]	3.55	4.07	4.07	685	4.32	3.49															pIC50 [5, 19]: 3.49
